What was measured:
Format in all cases: in vivo
Botrytis cinerea = Botrytis cinerea test in tomato (preventive, glasshouse); details: single compound
Phakopsora pachyrhizi = Phakopsora pachyrhizi test in soybean (preventive, glasshouse); details: single compound
Septoria nodorum = experiment: Parastagonospora nodorum/Septoria nodorum/Stagnospora nodorum test in wheat (preventive, glasshouse); details: single compound
Procedure: The single compounds or compound combinations were dissolved in 2% DMSO/Acetone and then mixed with water containing emulsifier to a calibrated spray volume of 50 mL. The spray solutions were poured into spray bottles for further applications.
To test the preventive activity of compounds, healthy young wheat plants, raised in the greenhouse, were sprayed with the single compound or mixture preparation at the stated application rates inside the spray cabinets using hollow cone nozzles. One day after treatment, the plants were inoculated with a suspension containing 2.8×10^6 Stagnospora nodorum inoculum. The inoculated plants were then kept in a greenhouse chamber at 22-25° C. temperature and 90-100% relative humidity for disease expression.
A visual assessment of the performance of the compounds and respective compound combinations was carried out by rating the disease severity (0-100% scale) on treated plants 3, 7 and 10 days after application. Efficacy (% control) of the compounds was calculated by comparing the disease rating in the treatment with the one of the untreated control. The compounds were also assessed for their plant compatibility by recording symptoms like necrosis, chlorosis & stunting. The results are shown for the compound of formula (I-1) to (I-5) in Table E1-E5.

Alternaria solani = Alternaria solani test in tomato (preventive, glasshouse)
Erysiphe cichoracearum = Erysiphe cichoracearum test in cucumber (preventive, glasshouse); details: single compound
Pyricularia oryzae = experiment: whole plant or invertebrate; details: single compound, preventive spray, rice
[1] = Conc. 0.1 ppm, preventive spray on tomato, % control vs untreated
[2] = 0.05 ppm, preventive spray on soybean
[3] = Conc. 0.05 ppm, soybean, preventive, Table D4
[4] = Conc. 0.1 ppm, soybean, preventive, Table D4
[5] = Table B4, single compound, Conc. 0.05 ppm, preventive
[6] = Table B4, single compound, Conc. 0.1 ppm, preventive
[7] = single compound, 0.05 ppm, preventive spray
[8] = single compound, 0.1 ppm, preventive spray

Cn1cc(C(=O)Nc2ccc(F)cc2-c2ccc(Cl)c(Cl)c2)c(C(F)F)n1 [Bixafen, bixafen]
Observed Efficacy (%) (Botrytis cinerea; [1]): 48% | Observed Efficacy (%) (Phakopsora pachyrhizi; [2]): 15% | Observed Efficacy (%) (Phakopsora pachyrhizi; 0.1 ppm, preventive spray on soybean): 22% | Observed Efficacy (%) (Phakopsora pachyrhizi; [3]): 15% | Observed Efficacy (%) (Phakopsora pachyrhizi; [4]): 22% | Observed Efficacy (%) (Septoria nodorum; 0.05 ppm): 18% | Observed Efficacy (%) (Septoria nodorum; 0.1 ppm): 29% | Observed Efficacy (%) (Alternaria solani; Table B3, single compound, Conc. 0.05 ppm, preventive): 11% | Observed Efficacy (%) (Alternaria solani; Table B3, single compound, Conc. 0.1 ppm, preventive): 29% | Observed Efficacy (%) (Alternaria solani; [5]): 11% | Observed Efficacy (%) (Alternaria solani; [6]): 29% | Observed Efficacy (%) (Alternaria solani; single compound, 0.05 ppm, preventive): 11% | Observed Efficacy (%) (Alternaria solani; [7]): 11% | Observed Efficacy (%) (Alternaria solani; single compound, 0.1 ppm, preventive): 29% | Observed Efficacy (%) (Alternaria solani; [8]): 29% | Observed Efficacy (Alternaria solani; single compound, Conc. 0.05 ppm, preventive spray): 11% | Observed Efficacy (Alternaria solani; single compound, Conc. 0.1 ppm, preventive spray): 29%

CCN(C)C=Nc1cc(C)cc(Cc2ccccc2C)c1C [Compound (I-3), N′-(2,5-dimethyl-3-(2-methylbenzyl)phenyl)-N-ethyl-N-methylformimidamide]
pest or weed control at 1 ppm (Botrytis cinerea; Botrytis cinerea, Conc. 1 ppm, preventive spray on tomato, % control vs untreated, read-out: Observed Efficacy (%)): 57% | pest or weed control at 5 ppm (Botrytis cinerea; Botrytis cinerea, Conc. 5 ppm, preventive spray on tomato, % control vs untreated, read-out: Observed Efficacy (%)): 67% | pest or weed control at 20 ppm (Botrytis cinerea; Botrytis cinerea, Conc. 20 ppm, preventive spray on tomato, % control vs untreated, read-out: Observed Efficacy (%)): 77% | pest or weed control at 0.0001 ppm (Phakopsora pachyrhizi; Phakopsora pachyrhizi, 0.0001 ppm, preventive spray on soybean, read-out: Observed Efficacy (%)): 47% | pest or weed control at 0.001 ppm (Phakopsora pachyrhizi; Phakopsora pachyrhizi, 0.001 ppm, preventive spray on soybean, read-out: Observed Efficacy (%)): 53% | pest or weed control at 0.01 ppm (Phakopsora pachyrhizi; Phakopsora pachyrhizi, 0.01 ppm, preventive spray on soybean, read-out: Observed Efficacy (%)): 65% | pest or weed control at 1 ppm (Septoria nodorum; Parastagonospora nodorum, 1 ppm, read-out: Observed Efficacy (%)): 13% | pest or weed control at 5 ppm (Septoria nodorum; Parastagonospora nodorum, 5 ppm, read-out: Observed Efficacy (%)): 27% | pest or weed control at 20 ppm (Septoria nodorum; Parastagonospora nodorum, 20 ppm, read-out: Observed Efficacy (%)): 40% | pest or weed control at 1 ppm (Alternaria solani; Alternaria solani, Table B3, single compound, Conc. 1 ppm, preventive, read-out: Observed Efficacy (%)): 17% | pest or weed control at 5 ppm (Alternaria solani; Alternaria solani, Table B3, single compound, Conc. 5 ppm, preventive, read-out: Observed Efficacy (%)): 23% | pest or weed control at 20 ppm (Alternaria solani; Alternaria solani, Table B3, single compound, Conc. 20 ppm, preventive, read-out: Observed Efficacy (%)): 43% | pest or weed control at 1 ppm (Erysiphe cichoracearum; Golovinomyces cichoracearum, 1 ppm, preventive spray on cucumber, read-out: Observed Efficacy (%)): 17% | pest or weed control at 5 ppm (Erysiphe cichoracearum; Golovinomyces cichoracearum, 5 ppm, preventive spray on cucumber, read-out: Observed Efficacy (%)): 27% | pest or weed control at 20 ppm (Erysiphe cichoracearum; Golovinomyces cichoracearum, 20 ppm, preventive spray on cucumber, read-out: Observed Efficacy (%)): 47%

metiram
Observed Efficacy (%) (Botrytis cinerea; Table F4, Conc. 0.05 ppm, Botrytis cinerea in tomato, preventive): 40% | Observed Efficacy (%) (Botrytis cinerea; Table F4, Conc. 0.1 ppm, Botrytis cinerea in tomato, preventive): 57% | Observed Efficacy (%) (Botrytis cinerea; Conc. 0.05 ppm, preventive spray on tomato, % control vs untreated): 40% | Observed Efficacy (%) (Botrytis cinerea; [1]): 57% | Observed Efficacy (%) (Phakopsora pachyrhizi; [2]): 17% | Observed Efficacy (%) (Phakopsora pachyrhizi; [3]): 17% | Observed Efficacy (%) (Phakopsora pachyrhizi; [4]): 37% | Observed Efficacy (Pyricularia oryzae; Conc. 0.05 ppm): 16% | Observed Efficacy (Pyricularia oryzae; Conc. 0.1 ppm): 18% | Observed Efficacy (%) (Alternaria solani; [5]): 26% | Observed Efficacy (%) (Alternaria solani; [6]): 30% | Observed Efficacy (%) (Alternaria solani; [7]): 26% | Observed Efficacy (%) (Alternaria solani; [8]): 30% | Observed Efficacy (%) (Erysiphe cichoracearum; 0.05 ppm, cucumber, preventive): 47% | Observed Efficacy (%) (Erysiphe cichoracearum; 0.05 ppm, preventive spray on cucumber): 47% | Observed Efficacy (%) (Erysiphe cichoracearum; 0.1 ppm, cucumber, preventive): 55% | Observed Efficacy (%) (Erysiphe cichoracearum; 0.1 ppm, preventive spray on cucumber): 55%

— patent publication US20230413824A1, “AGROCHEMICAL COMPOSITION COMPRISING 3-SUBSTITUTED PHENYLAMIDINE COMPOUNDS AND USE THEREOF” (PI INDUSTRIES LIMITED, priority 2020, published 2023)
